This is an account of results in patent US20200375958A1, “MEMBRANE ACTIVE MOLECULES” (priority 2017, published 2020).

The test system of one data set is CF-1 mice. The data set can be described thus: Anticonvulsant test in mice: metrazol (pentylenetetrazol) tail vein infusion, time to twitch and seizure. Format: in vivo, mouse. On the procedure: CF-1 mice were used in this study. Number 20 PE tubing to cannulate a mouse tail vein was used. An infusion pump was used to deliver a solution at a rate of 0.34 mL/min. A hemostat was used to prevent backflow in the PE tubing before the experiment stated. To begin the experiment, the hemostat that was clamped to the PE 20 tubing was removed, the infusion of the solution was started into the tail IV of the mouse, and the timer was started.
The study reflects the time in seconds from the start of the infusion to the time of twitch and onset of seizure, or 90 seconds, whichever is sooner. When the seizure occurs, the infusion is turned off.
As a control, metrazol (pentylenetetrazol) in a 0.5% solution (5 mg/mL) in water was prepared. Pentylenetetrazol is used as a control to study seizure phenomena in and to identify compounds that may control seizure susceptibility. Solutions of 8 M butyric acid and 1.5 M 3-hydroxybutyric acid were made.
The time to twitch and time to seizure of the mouse in seconds is recorded in Tables 3-5, below.

The subject of a further data set is mouse. On the procedure: Butyric acid was dissolved in water to form an 8 M solution. 0.5 mL of the 8 M solution of butyric acid was injected subcutaneously (at the back of the neck) into the mouse.
3-hydroxybutyric acid was dissolved in water to form 1 M, 1.5 M, and 2 M solutions. 0.2 mL of a 1.5 M solution of 3-hydroxybutyric acid was injected into a tail vein of a CD-1 mouse. […] This was repeated for at least 2 more times on subsequent days.
Ethylmalonic acid was dissolved in water to form 2 M, 3 M, and 4 M solutions. 0.2 mL of a 3 M solution of ethylmalonic acid was injected into a tail vein of a mouse. […] This was repeated for at least 2 more times on subsequent days.
Ethylmalonic acid was dissolved in water to form a 4 M solution. 0.5 mL of the 4 M solution of ethylmalonic acid was injected subcutaneously into the mouse.

In another data set the test system is Tadpoles. The data set can be described thus: Tadpole anesthesia test (movement suppressed on contact with rod). The conditions noted are these: read-out: Movement suppressed (%). Format: in vivo. On the procedure: Tadpoles were placed in a petri dish containing aquarium water. Four to eight tadpoles were placed in each petri dish. The aquarium water contained the specified test compound at the listed concentration. When the tadpoles stopped moving, a plastic rod was used to elicit motion once again by contact between the rod and tadpole. […] From this and the number of subjects, the percent of tadpoles in which movement was suppressed were calculated.
After 1 to 30 minutes, they were again contacted with a rod to ensure the anesthetic effect had worn off.
In some examples, subanesthetic concentrations of ethanol were added into the aquarium water. Tadpoles in which movement was prevented with exposure to a test compound and ethanol but not with exposure to a test compound alone were classified as partial anesthetics.

Where [1] appears, read: average of 8 mice, 1.5 M 3-hydroxybutyric acid solution plus metrazol.
[2] abbreviates: individual mice, 1.5 M 3-hydroxybutyric acid solution plus metrazol.
The mark [3] stands for this setting: average of 13 mice, 8 M butyric acid solution plus metrazol.
Where [4] appears, read: individual mice, 8 M butyric acid solution plus metrazol.
[5] abbreviates: 0.5 mL of 8 M solution in water, subcutaneous (back of the neck).
Where [6] appears, read: average of 9 mice, metrazol alone.
Where [7] appears, read: individual mice, metrazol 0.5% solution infused 0.34 mL/min tail vein.

The structures appear in SMILES notation. Where “and” joins values, the source holds several entries; their conditions need not be identical. Identical values can stand only once. Like-named read-outs stand apart in the source and are kept apart here.

For `CC(O)CC(=O)O` (stereo not shown) [3-hydroxybutyric acid], in the data set on CF-1 mice (setting [1]), the “3-Hydroxybutyric Acid and Metrazol Time to Seizures (seconds), Avg.” value worked out at 56.9 s; the “3-Hydroxybutyric Acid and Metrazol Time to Twitch (seconds), Avg.” value came to 47.5 s. Also, in the data set on CF-1 mice (setting [2]), the “3-Hydroxybutyric Acid and Metrazol Time to Seizures” value is 61 seconds and 74 seconds and 53 seconds (3×) and 48 seconds (2×) and 65 seconds; the “3-Hydroxybutyric Acid and Metrazol Time to Twitch” value was 56 s and 54 s and 49 s and 47 s and 38 s and 50 s and 45 s and 41 s. For the same compound, the “Anesthetic effect on the mouse” value in the data set on mouse (0.2 mL of 1.5 M solution in water, tail vein, CD-1 mouse) is “became unconscious or anesthetic”. Further, the “Anesthetic effect on the mouse” value in the data set with mouse (1 M solution in water, tail vein, CD-1 mouse) is “did not have any observable effect”. The “Lethality to the mouse” value in the data set on mouse (2 M solution in water, tail vein, CD-1 mouse) was “lethal”.

In the case of `CCC(C(=O)O)C(=O)O` [Ethyl Malonic Acid, 2-Ethylmalonic acid], in the data set on Tadpoles, the responders at 16000 µM was 0%, the responders at 62500 µM turned out to be 0%, the responders at 125000 µM is 100% and the responders at 250000 µM was 100%. Also, the “Anesthetic effect on the mouse” value with mouse (0.2 mL of 3 M solution in water, tail vein) is reported as “became unconscious”. In addition, the “Anesthetic effect on the mouse” value in the data set with mouse (0.5 mL of 4 M solution in water, subcutaneous) is on record as “became sedated, anesthetized, or lose consciousness”. In addition, the “Anesthetic effect on the mouse” value in the data set with mouse (2 M solution in water, tail vein) is “did not have any observable effect”. Further, the “Lethality to the mouse” value in the data set on mouse (4 M solution in water, tail vein) was “lethal”.

Regarding `CCCC(=O)O` [Butyric acid], in the data set on Tadpoles, the responders at 62500 µM was found to be 100%, the responders at 125000 µM worked out at 100%, the responders at 250000 µM stood at 100% and the responders at 500000 µM worked out at 100%. Also, in the data set on CF-1 mice (setting [3]), the “Butyric Acid and Metrazol Time to Seizures (seconds), Avg.” value was 51.2 s; the “Butyric Acid and Metrazol Time to Twitch (seconds), Avg.” value stood at 41.4 s. For the same compound, in the data set with CF-1 mice (setting [4]), the “Butyric Acid and Metrazol Time to Seizures” value was 51 seconds and 50 seconds (2×) and 47 seconds and 57 seconds (3×) and 42 seconds and 66 seconds and 41 seconds and 44 seconds and 38 seconds and 65 seconds; the “Butyric Acid and Metrazol Time to Twitch” value is 38 seconds and 42 seconds and 44 seconds and 50 seconds and 34 seconds (2×) and 53 seconds (2×) and 48 seconds and 36 seconds (2×) and 35 seconds (2×). Moreover, the “Lethality to the mouse” value in the data set on mouse (0.2 mL of 8 M solution in water, intravenous, tail vein) is reported as “lethal”. In addition, in the data set with mouse (setting [5]), the “Anesthetic effect on the mouse” value is reported as “became anesthetized or lost consciousness”, the “Time until mouse became anesthetized or lost consciousness” value is 10 to 15 min and the “Time until mouse woke up” value is “several hours”.

Regarding `C1CCc2nnnn2CC1` [Metrazol, pentylenetetrazol, reference compound], in the data set with CF-1 mice (setting [6]), the “Metrazol alone Time to Seizures (seconds), Avg.” value stood at 45.7 s and the “Metrazol alone Time to Twitch (seconds), Avg.” value is 37.3 s. Further, in the data set with CF-1 mice (setting [7]), the “Metrazol alone Time to Seizures” value was 43 seconds (2×) and 42 seconds (2×) and 59 seconds and 45 seconds and 39 seconds and 49 seconds (2×); the “Metrazol alone Time to Twitch” value was 33 seconds and 36 seconds (2×) and 37 seconds and 52 seconds and 34 seconds (2×) and 31 seconds and 43 seconds.
